Measurements: US9890146B2, “Compound having selective EP2 agonist activity” (ONO PHARMACEUTICAL CO., LTD., priority 2014, dated 2018)

System: male monkey (a cynomolgus monkey)
Experiment: Intraocular pressure lowering activity after ocular instillation
Format: in vivo
Settings: Primates, in Macaca fascicularis, topical, maximum rate during 24 hours after ocular instillation of 30 μL, conscious monkey; for inhibition in vivo at 3 µg/mL: administration concentration 3 μg/mL
Procedure: As can be easily understood by a person skilled in the art, in an in vivo test, since regarding all test compounds, carboxylic acid which is an active body has poor corneal permeability, pharmacological action of the active body was evaluated by ocular instillation administration of a compound which had been converted into an ester such as an ethyl ester or an isopropyl ester, or an alcohol.
A test compound-containing solution (30 μL) which had been adjusted to each of various concentrations was ocular instillation-administered to the left or right eye of a male monkey (a cynomolgus monkey) under consciousness. An intraocular pressure after administration was measured with time from administration initiation to after 24 hours. Upon measurement of an intraocular pressure, a cynomolgus monkey was fixed on a monkey chair, and the monkey was anesthetized by ocular instillation-administering an ocular surface anesthetic (Benoxil eye drops 0.4% Santen Pharmaceutical Co., Ltd.). After mounting of a blepharostat (Handaya Co., Ltd.), an intraocular pressure of both eyes was measured (7 to 8 examples per group) using a pneumatic applanation flat tonometer (Model 30 Classic, REICHERT). A difference between an intraocular pressure value before the administration of a test substance and an intraocular pressure value after the administration of the test substance was calculated as an intraocular pressure lowering rate in accordance with the following equation, and the sustainability of intraocular eye lowering action was evaluated using a maximum intraocular pressure lowering rate during measurement.
The administered concentrations were determined based on the EP2 agonist activities measured by the above-mentioned method.

Row | Compound | inhibition in vivo at 3 µg/mL [%] | further results
1 | OCc1csc([C@H]2CC[C@@H]3[C@@H](COc4ccc5c(c4F)CCC5)[C@@H](O)C[C@@H]3O2)n1 [10(22), (2R,4aR,5S,6S,7aS)-5-{[(4-fluoro-2,3-dihydro-1H-inden-5-yl)oxy]methyl}-2-[4-(hydroxymethyl)-1,3-thiazol-2-yl]octahydrocyclopenta[b]pyran-6-ol] | 43 | 
2 | CSc1cc(OC[C@@H]2[C@H]3CC[C@H](c4nc(CO)cs4)O[C@H]3C[C@@H]2O)ccc1C [10(12), (2R,4aR,5S,6S,7aS)-2-[4-(hydroxymethyl)-1,3-thiazol-2-yl]-5-{[4-methyl-3-(methylthio)phenoxy]methyl}octahydrocyclopenta[b]pyran-6-ol] |  | inhibition in vivo at 0.3 µg/mL (administration concentration 0.3 μg/mL): 33%
3 | OCc1csc([C@H]2CC[C@@H]3[C@@H](COc4ccc5c(c4)CC5)[C@H](O)C[C@@H]3O2)n1 [2(7), (2R,4aR,5S,6R,7aS)-5-[(bicyclo[4.2.0]octa-1,3,5-trien-3-yloxy)methyl]-2-[4-(hydroxymethyl)-1,3-thiazol-2-yl]octahydrocyclopenta[b]pyran-6-ol] |  | inhibition in vivo at 30 µg/mL (administration concentration 30 μg/mL): 38%
4 | Cc1ccc(OC[C@@H]2[C@H]3CC[C@H](c4nc(CO)cs4)O[C@H]3C[C@@H]2O)cc1Cl [10(21), (2R,4aR,5S,6S,7aS)-5-[(3-chloro-4-methylphenoxy)methyl]-2-[4-(hydroxymethyl)-1,3-thiazol-2-yl]octahydrocyclopenta[b]pyran-6-ol] |  | inhibition in vivo at 1 µg/mL (administration concentration 1 μg/mL): 44%
5 | Cc1cc(OC[C@@H]2[C@H]3CC[C@H](c4nc(CO)cs4)O[C@H]3C[C@H]2O)ccc1Cl [2(13), (2R,4aR,5S,6R,7aS)-5-[(4-chloro-3-methylphenoxy)methyl]-2-[4-(hydroxymethyl)-1,3-thiazol-2-yl]octahydrocyclopenta[b]pyran-6-ol] | 31 | 
6 | Cc1cc(OC[C@@H]2[C@H]3CC[C@H](c4nc(C(=O)OC(C)C)cs4)O[C@H]3C[C@H]2O)ccc1[N+](=O)[O-] [3(3), isopropyl 2-{(2R,4aR,5S,6R,7aS)-6-hydroxy-5-[(3-methyl-4-nitrophenoxy)methyl]octahydrocyclopenta[b]pyran-2-yl}-1,3-thiazole-4-carboxylate] | 33 | 
7 | OCc1csc([C@H]2CC[C@@H]3[C@@H](COc4ccc5c(c4)CCC5)[C@@H](O)C[C@@H]3O2)n1 [10(1), (2R,4aR,5S,6S,7aS)-5-[(2,3-dihydro-1H-inden-5-yloxy)methyl]-2-[4-(hydroxymethyl)-1,3-thiazol-2-yl]octahydrocyclopenta[b]pyran-6-ol] | 29 | 
8 | Cc1ccc(OC[C@@H]2[C@H]3CC[C@H](c4nc(CO)cs4)O[C@H]3C[C@H]2O)cc1C [2(12), (2R,4aR,5S,6R,7aS)-5-[(3,4-dimethylphenoxy)methyl]-2-[4-(hydroxymethyl)-1,3-thiazol-2-yl]octahydrocyclopenta[b]pyran-6-ol] |  | inhibition in vivo at 10 µg/mL (administration concentration 10 μg/mL): 43%
